# Patent publication US20260262643A1, “HERBICIDAL BENZOXAZINES” (FMC CORPORATION, priority 2022, published 2026)
# Legend:
# barnyardgrass [1] = assay: Test C preemergence; assay type: in vivo, Echinochloa crusgalli
# Outline: (§1)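 Test material, in non-phytotoxic solvent with surfactant, was sprayed on the soil directly after seeding (preemergence) or on young plants of 2–10 cm with one to two leaves (postemergence). Greenhouse, 10 days; 0–100 visual control scale.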
# blackgrass [2] = assay: Test C preemergence; assay type: in vivo, Alopecurus myosuroides
# Outline: as §1
# corn [3] = assay: Test C preemergence; assay type: in vivo, Zea mays
# Outline: as §1
# foxtail, giant [4] = assay: Test C preemergence; assay type: in vivo, Setaria faberi
# Source text: (§2) Seeds of plant species selected from barnyardgrass (Echinochloa crusgalli), blackgrass (Alopecurus myosuroides), corn (Zea mays), foxtail, giant (giant foxtail, Setaria faberi), green foxtail (Setaria viridis), goosegrass (Eleusine indica), kochia (Bassia scoparia), oat, wild (wild oat, Avena fatua), pigweed, palmer (palmer amaranth, palmer pigweed, Amaranthus palmeri), Pigweed, Redroot (redroot pigweed, Amaranthus retroflexus), ragweed (common ragweed, Ambrosia artemisiifolia), ryegrass, Italian ([…] ryegrass, Lolium multiflorum), soybean (Glycine max), and wheat (Triticum aestivum) were planted into a blend of loam soil and sand and treated preemergence with a directed soil spray using test chemicals formulated in a non-phytotoxic solvent mixture which included a surfactant. At the same time, plants selected from these crops and weed species and also galium (catchweed bedstraw, Galium aparine) and horseweed (Erigeron canadensis) were planted in pots containing the same blend of loam soil and sand and treated with postemergence applications of test chemicals formulated in the same manner. Plants ranged in height from 2 to 10 cm and were in the one- to two-leaf stage for the postemergence treatment. Treated plants and untreated controls were maintained in a greenhouse for 10 days, after which time all treated plants were compared to untreated controls and visually evaluated for injury. Plant response ratings, summarized in Table C, are based on a 0 to 100 scale where 0 is no effect and 100 is complete control. A dash (-) response means no test result.
# kochia [5] = assay: Test C preemergence; assay type: in vivo, Bassia scoparia
# Outline: as §1
# oat, wild [6] = assay: Test C preemergence; assay type: in vivo, Avena fatua
# Outline: as §1
# pigweed, palmer [7] = assay: Test C preemergence; assay type: in vivo, Amaranthus palmeri
# Outline: as §1
# ragweed [8] = assay: Test C preemergence; assay type: in vivo, Ambrosia artemisiifolia
# Outline: as §1
# ryegrass, Italian [9] = assay: Test C preemergence; assay type: in vivo, Lolium multiflorum
# Outline: as §1
# soybean [10] = assay: Test C preemergence; assay type: in vivo, Glycine max
# Outline: as §1
# wheat [11] = assay: Test C preemergence; assay type: in vivo, Triticum aestivum
# Outline: as §1
# barnyardgrass [12] = assay: Test C postemergence; assay type: in vivo, Echinochloa crusgalli; settings: 10 days, 0 to 100 scale (0 no effect, 100 complete control)
# Outline: as §1
# blackgrass [13] = assay: Test C postemergence; assay type: in vivo, Alopecurus myosuroides; settings: 10 days, 0 to 100 scale (0 no effect, 100 complete control)
# Outline: as §1
# corn [14] = assay: Test C postemergence; assay type: in vivo, Zea mays; settings: 10 days, 0 to 100 scale (0 no effect, 100 complete control)
# Outline: as §1
# foxtail, giant [15] = assay: Test C postemergence; assay type: in vivo, Setaria faberi; settings: 10 days, 0 to 100 scale (0 no effect, 100 complete control)
# Source text: as §2
# kochia [16] = assay: Test C postemergence; assay type: in vivo, Bassia scoparia; settings: 10 days, 0 to 100 scale (0 no effect, 100 complete control)
# Outline: as §1
# oat, wild [17] = assay: Test C postemergence; assay type: in vivo, Avena fatua; settings: 10 days, 0 to 100 scale (0 no effect, 100 complete control)
# Outline: as §1
# pigweed, palmer [18] = assay: Test C postemergence; assay type: in vivo, Amaranthus palmeri; settings: 10 days, 0 to 100 scale (0 no effect, 100 complete control)
# Outline: as §1
# ragweed [19] = assay: Test C postemergence; assay type: in vivo, Ambrosia artemisiifolia; settings: 10 days, 0 to 100 scale (0 no effect, 100 complete control)
# Outline: as §1
# ryegrass, Italian [20] = assay: Test C postemergence; assay type: in vivo, Lolium multiflorum; settings: 10 days, 0 to 100 scale (0 no effect, 100 complete control)
# Outline: as §1
# soybean [21] = assay: Test C postemergence; assay type: in vivo, Glycine max; settings: 10 days, 0 to 100 scale (0 no effect, 100 complete control)
# Outline: as §1
# wheat [22] = assay: Test C postemergence; assay type: in vivo, Triticum aestivum; settings: 10 days, 0 to 100 scale (0 no effect, 100 complete control)
# Outline: as §1
# galium = assay: Test C postemergence; assay type: in vivo, Galium aparine; settings: 10 days, 0 to 100 scale (0 no effect, 100 complete control)
# Outline: as §1
# horseweed = assay: Test C postemergence; assay type: in vivo, Erigeron canadensis; settings: 10 days, 0 to 100 scale (0 no effect, 100 complete control)
# Outline: as §1
# barnyardgrass [23] = assay: Test D flooded paddy test; assay type: in vivo, Echinochloa crus-galli; settings: 250 g ai/ha, applied to paddy water, visual rating after 13 to 14 days, scale 0 to 100 (0 no effect, 100 complete control)
# Outline: (§3)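 Visual ratings from 0, meaning no effect, to 100, meaning complete control, were assigned against untreated controls 13 to 14 days after compounds were added to the floodwater of pots kept 3 cm deep, with plants at the 2-leaf stage.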
# ducksalad = assay: Test D flooded paddy test; assay type: in vivo, Heteranthera limosa; settings: 250 g ai/ha, applied to paddy water, visual rating after 13 to 14 days, scale 0 to 100 (0 no effect, 100 complete control)
# Outline: as §3
# rice = assay: Test D flooded paddy test; assay type: in vivo, Oryza sativa; settings: 250 g ai/ha, applied to paddy water, visual rating after 13 to 14 days, scale 0 to 100 (0 no effect, 100 complete control)
# Outline: as §3
# sedge, umbrella = assay: Test D flooded paddy test; assay type: in vivo, Cyperus difformis; settings: 250 g ai/ha, applied to paddy water, visual rating after 13 to 14 days, scale 0 to 100 (0 no effect, 100 complete control)
# Outline: as §3
# [24] = 500 g ai/ha, preemergence, 0 to 100 scale (0 no effect, 100 complete control)
# [25] = Preemergence, 125 g ai/ha, 0 to 100 scale, 0 no effect, 100 complete control
smiles,measurement,setting,value
Cc1cccc2c1OC(C(F)(F)F)CN2C(=O)c1ccnc(-n2cnc(C(C)C)n2)c1 (stereo not shown) [Compound 327],Barnyardgrass plant response rating,barnyardgrass [1]; [24],90
same,"Plant response rating, Barnyardgrass",barnyardgrass [1]; [25],50
same,Blackgrass plant response rating,blackgrass [2]; [24],90
same,"Plant response rating, Blackgrass",blackgrass [2]; [25],90
same,Corn plant response rating,corn [3]; [24],70
same,"Plant response rating, Corn",corn [3]; [25],20
same,"Foxtail, Giant plant response rating","foxtail, giant [4]; [24]",100
same,"Plant response rating, Foxtail, Giant","foxtail, giant [4]; [25]",100
same,Kochia plant response rating,kochia [5]; [24],90
same,"Plant response rating, Kochia",kochia [5]; [25],20
same,"Oat, Wild plant response rating","oat, wild [6]; [24]",70
same,"Plant response rating, Oat, Wild","oat, wild [6]; [25]",20
same,"Pigweed, Palmer plant response rating","pigweed, palmer [7]; [24]",90
same,"Plant response rating, Pigweed, Palmer","pigweed, palmer [7]; [25]",50
same,Ragweed plant response rating,ragweed [8]; [24],30
same,"Plant response rating, Ragweed",ragweed [8]; [25],0
same,"Ryegrass, Italian plant response rating","ryegrass, Italian [9]; [24]",100
same,"Plant response rating, Ryegrass, Italian","ryegrass, Italian [9]; [25]",90
same,Soybean plant response rating,soybean [10]; [24],100
same,"Plant response rating, Soybean",soybean [10]; [25],100
same,Wheat plant response rating,wheat [11]; [24],90
same,"Plant response rating, Wheat",wheat [11]; [25],40
same,"Plant response rating, Barnyardgrass","barnyardgrass [12]; 500 g ai/ha, postemergence",90
same,"Plant response rating, Barnyardgrass","barnyardgrass [12]; Postemergence, 125 g ai/ha",40
same,"Plant response rating, Blackgrass","blackgrass [13]; 500 g ai/ha, postemergence",90
same,"Plant response rating, Blackgrass","blackgrass [13]; Postemergence, 125 g ai/ha",30
same,"Plant response rating, Corn","corn [14]; 500 g ai/ha, postemergence",90
same,"Plant response rating, Corn","corn [14]; Postemergence, 125 g ai/ha",70
same,"Plant response rating, Foxtail, Giant","foxtail, giant [15]; 500 g ai/ha, postemergence",90
same,"Plant response rating, Foxtail, Giant","foxtail, giant [15]; Postemergence, 125 g ai/ha",60
same,"Plant response rating, Kochia","kochia [16]; 500 g ai/ha, postemergence",90
same,"Plant response rating, Kochia","kochia [16]; Postemergence, 125 g ai/ha",40
same,"Plant response rating, Oat, Wild","oat, wild [17]; 500 g ai/ha, postemergence",90
same,"Plant response rating, Oat, Wild","oat, wild [17]; Postemergence, 125 g ai/ha",40
same,"Plant response rating, Pigweed, Palmer","pigweed, palmer [18]; 500 g ai/ha, postemergence",50
same,"Plant response rating, Pigweed, Palmer","pigweed, palmer [18]; Postemergence, 125 g ai/ha",30
same,"Plant response rating, Ragweed","ragweed [19]; 500 g ai/ha, postemergence",40
same,"Plant response rating, Ragweed","ragweed [19]; Postemergence, 125 g ai/ha",30
same,"Plant response rating, Ryegrass, Italian","ryegrass, Italian [20]; 500 g ai/ha, postemergence",80
same,"Plant response rating, Ryegrass, Italian","ryegrass, Italian [20]; Postemergence, 125 g ai/ha",40
same,"Plant response rating, Soybean","soybean [21]; 500 g ai/ha, postemergence",100
same,"Plant response rating, Soybean","soybean [21]; Postemergence, 125 g ai/ha",100
same,"Plant response rating, Wheat","wheat [22]; 500 g ai/ha, postemergence",30
same,"Plant response rating, Wheat","wheat [22]; Postemergence, 125 g ai/ha",20
same,"Plant response rating, Galium","galium; 500 g ai/ha, postemergence",100
same,"Plant response rating, Galium","galium; Postemergence, 125 g ai/ha",70
same,"Plant response rating, Horseweed","horseweed; 500 g ai/ha, postemergence",60
same,"Plant response rating, Horseweed","horseweed; Postemergence, 125 g ai/ha",0
same,"Plant response rating, Barnyardgrass (Flood)",barnyardgrass [23],15
same,"Plant response rating, Ducksalad (Flood)",ducksalad,25
same,"Plant response rating, Rice (Flood)",rice,0
same,"Plant response rating, Sedge, Umbrella (Flood)","sedge, umbrella",70
